According to the supplement of paper PMC5908809:

Tests used:
KHYG-1 (IL-2 2.5 ng/mL) [1] = experiment: percent inhibition of viability; higher = more inhibition; conditions: 72 h
NKL (IL-2 2.5 ng/mL) [2] = experiment: as above; conditions: 72 h
NK-92 (IL-2 2.5 ng/mL) [3] = experiment: as above; conditions: 72 h
DERL-7 (IL-2 2.5 ng/mL) [4] = experiment: as above; conditions: 72 h
[5] = tested on: normal primary NK cells, pool 1 (3 donors) (IL-2 2.5 ng/mL); experiment: as above; conditions: 72 h
YT (IL-2 2.5 ng/mL) [6] = experiment: as above; conditions: 72 h
SNK-6 (IL-2 2.5 ng/mL) [7] = experiment: as above; conditions: 72 h
KAI3 (IL-2 2.5 ng/mL) [8] = experiment: as above; conditions: 72 h
[9] = tested on: normal primary NK cells, pool 1 (3 donors), resting (IL-2 0 ng/mL); experiment: as above; conditions: 72 h
NK-YS (IL-2 2.5 ng/mL) [10] = experiment: as above; conditions: 72 h
KHYG-1 (IL-2 2.5 ng/mL) [11] = experiment: drug sensitivity score (DSS) (DSS units); higher = more sensitive; extreme values may be limits of the assay; conditions: 72 h
NKL (IL-2 2.5 ng/mL) [12] = experiment: as above; conditions: 72 h
NK-92 (IL-2 2.5 ng/mL) [13] = experiment: as above; conditions: 72 h
DERL-7 (IL-2 2.5 ng/mL) [14] = experiment: as above; conditions: 72 h
[15] = tested on: normal primary NK cells, pool 1 (3 donors) (IL-2 2.5 ng/mL); experiment: as above; conditions: 72 h
YT (IL-2 2.5 ng/mL) [16] = experiment: as above; conditions: 72 h
SNK-6 (IL-2 2.5 ng/mL) [17] = experiment: as above; conditions: 72 h
KAI3 (IL-2 2.5 ng/mL) [18] = experiment: as above; conditions: 72 h
[19] = tested on: normal primary NK cells, pool 1 (3 donors), resting (IL-2 0 ng/mL); experiment: as above; conditions: 72 h
NK-YS (IL-2 2.5 ng/mL) [20] = experiment: as above; conditions: 72 h
[21] = tested on: normal NK cells expanded with K562-aAPC; experiment: percent inhibition of viability; higher = more inhibition; conditions: 72 h, IL-2 2.5 ng/mL
Description: (§1)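 Drug sensitivity and resistance testing on K562-aAPC-expanded normal NK cells: 5 concentrations (10-fold steps over a 10,000-fold range), 72 h at 37 °C, viability by CellTiter-Glo normalised to DMSO and benzethonium chloride controls; DSS from the fitted curve.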

[22] = tested on: normal NK cells expanded with K562-aAPC; experiment: drug sensitivity score (DSS) (DSS units); higher = more sensitive; extreme values may be limits of the assay; conditions: 72 h; IL-2 2.5 ng/mL
Description: as §1

[23] = tested on: normal primary NK cells, pool 2 (3 donors) (IL-2 2.5 ng/mL); experiment: percent inhibition of viability; higher = more inhibition; conditions: 72 h
IMC-1 (IL-2 20 ng/mL) [24] = experiment: as above; conditions: 72 h
[25] = tested on: normal primary NK cells, pool 3 (3 donors) (IL-2 2.5 ng/mL); experiment: as above; conditions: 72 h
[26] = tested on: normal primary NK cells, pool 2 (3 donors) (IL-2 2.5 ng/mL); experiment: drug sensitivity score (DSS) (DSS units); higher = more sensitive; extreme values may be limits of the assay; conditions: 72 h
IMC-1 (IL-2 20 ng/mL) [27] = experiment: as above; conditions: 72 h
[28] = tested on: normal primary NK cells, pool 3 (3 donors) (IL-2 2.5 ng/mL); experiment: as above; conditions: 72 h

CC(C)n1nc(-c2ccc3oc(N)nc3c2)c2c(N)ncnc21 [INK128] (max concentration tested 1000 nM)
percent inhibition of viability [%]
Conditions	DERL-7 (IL-2 2.5 ng/mL) [4]	KAI3 (IL-2 2.5 ng/mL) [8]	KHYG-1 (IL-2 2.5 ng/mL) [1]	NK-92 (IL-2 2.5 ng/mL) [3]	NK-YS (IL-2 2.5 ng/mL) [10]	NKL (IL-2 2.5 ng/mL) [2]	SNK-6 (IL-2 2.5 ng/mL) [7]	YT (IL-2 2.5 ng/mL) [6]	[5]	[9]
0.1 nM	-4.21	-5.24	-4.72	-2.13	-11.2	0.39	-24	-1.84	-6.36	-19.8
1 nM	-1.17	-1.02	1.98	9.63	-5.11	1.73	-3.64	1.95	5.5	6.92
10 nM	39.4	24.1	3.77	22.5	6.74	38.8	15.8	15.8	19.8	15.4
100 nM	76.1	54.6	33	60.8	51.9	63.9	45.9	65.5	31.3	17.9
1000 nM	91.4	70.3	83.9	74.7	71.6	70.2	41.9	78	40.5	34.9

Conditions	drug sensitivity score
DERL-7 (IL-2 2.5 ng/mL) [14]	19.2
KAI3 (IL-2 2.5 ng/mL) [18]	13.1
KHYG-1 (IL-2 2.5 ng/mL) [11]	8.73
NK-92 (IL-2 2.5 ng/mL) [13]	14.1
NK-YS (IL-2 2.5 ng/mL) [20]	10.7
NKL (IL-2 2.5 ng/mL) [12]	17.1
SNK-6 (IL-2 2.5 ng/mL) [17]	10.6
YT (IL-2 2.5 ng/mL) [16]	14.1
[15]	7.91
[19]	4.47

CCN(c1cc(-c2ccc(CN3CCOCC3)cc2)cc(C(=O)NCc2c(C)cc(C)[nH]c2=O)c1C)C1CCOCC1 [Tazemetostat] (max concentration tested 10000 nM)
percent inhibition of viability [%]
Conditions	1 nM	10 nM	100 nM	1000 nM	10000 nM
IMC-1 (IL-2 20 ng/mL) [24]	-6.56	0.55	-2.13	1.66	2.45
[21]	-1.54	2.17	-0.28	10.4	0.84
[23]	-7.19	-1.07	5.71	-5.28	7.6
[25]	-4.31	-2.24	8.29	-7.9	0.75

Conditions	drug sensitivity score
IMC-1 (IL-2 20 ng/mL) [27]	0
[22]	0
[26]	0
[28]	0

CC(C)n1nc(-c2ccc3oc(N)nc3c2)c2c(N)ncnc21 [MLN-0128] (max concentration tested 1000 nM)
percent inhibition of viability [%]
Conditions	0.1 nM	1 nM	10 nM	100 nM	1000 nM
IMC-1 (IL-2 20 ng/mL) [24]	-2.42	-1.34	-16.7	-30.3	19.6
[21]	-6.08	-1.99	18	40.5	44.1
[23]	-8.27	4.32	23.5	28	36.7
[25]	-6.15	0.85	15.6	13.5	35.5

Conditions	drug sensitivity score
IMC-1 (IL-2 20 ng/mL) [27]	0.2
[22]	9.64
[26]	8.27
[28]	3.64

CON(C)C(=O)N1N=C(c2cc(F)ccc2F)S[C@@]1(CCCN)c1ccccc1 [Filanesib] (max concentration tested 1000 nM)
percent inhibition of viability [%]
Conditions	0.1 nM	1 nM	10 nM	100 nM	1000 nM
IMC-1 (IL-2 20 ng/mL) [24]	0.48	0.61	99.5	100	99.5
[21]	5.43	2.85	56.5	56.8	56.8
[23]	-10.4	4.01	3.31	2.78	0.91
[25]	-8.61	0.04	1.29	2.17	-3.73

Conditions	drug sensitivity score
IMC-1 (IL-2 20 ng/mL) [27]	30.5
[22]	18.2
[26]	0
[28]	0

CCN(CC)CCCC(C)Nc1ccnc2cc(Cl)ccc12 (stereo not drawn) [Chloroquine] (max concentration tested 100000 nM)
percent inhibition of viability [%]
Conditions	10 nM	100 nM	1000 nM	10000 nM	100000 nM
IMC-1 (IL-2 20 ng/mL) [24]	-9.53	-2.15	-3.29	-3.07	99.8
[21]	-7.98	-8.65	-3.82	76	101
[23]	-5.74	2.44	3.84	28.9	101
[25]	-6.29	3.82	7.92	52.1	101

Conditions	drug sensitivity score
IMC-1 (IL-2 20 ng/mL) [27]	5.31
[22]	14.2
[26]	9.79
[28]	11.8

CON(C)C(=O)N1N=C(c2cc(F)ccc2F)S[C@@]1(CCCN)c1ccccc1 [ARRY-520] (max concentration tested 1000 nM)
percent inhibition of viability [%]
Conditions	DERL-7 (IL-2 2.5 ng/mL) [4]	KAI3 (IL-2 2.5 ng/mL) [8]	KHYG-1 (IL-2 2.5 ng/mL) [1]	NK-92 (IL-2 2.5 ng/mL) [3]	NK-YS (IL-2 2.5 ng/mL) [10]	NKL (IL-2 2.5 ng/mL) [2]	SNK-6 (IL-2 2.5 ng/mL) [7]	YT (IL-2 2.5 ng/mL) [6]	[5]	[9]
0.1 nM	-10.8	-7.27	-0.04	-13.1	-0.87	1.77	21	1.27	-14.6	-28.7
1 nM	1.72	-8.08	-0.06	-13.4	0.68	-1.49	12.7	1.15	-9.86	-37.1
10 nM	98.7	45.9	98.8	45.1	71.2	78.1	81.8	7.04	-12	-37.4
100 nM	100	49.6	107	92.3	77	93.3	88	65.3	2.21	-9.59
1000 nM	100	49.5	103	89.1	76.6	87.7	87.7	65.7	-7.49	-26.9

Conditions	drug sensitivity score
DERL-7 (IL-2 2.5 ng/mL) [14]	30.5
KAI3 (IL-2 2.5 ng/mL) [18]	14.6
KHYG-1 (IL-2 2.5 ng/mL) [11]	30.3
NK-92 (IL-2 2.5 ng/mL) [13]	22.4
NK-YS (IL-2 2.5 ng/mL) [20]	23.1
NKL (IL-2 2.5 ng/mL) [12]	26
SNK-6 (IL-2 2.5 ng/mL) [17]	27.8
YT (IL-2 2.5 ng/mL) [16]	13.2
[15]	0
[19]	0

N.N.[Cl][Pt][Cl] [Cisplatin] (max concentration tested 100000 nM)
percent inhibition of viability [%]
Conditions	10 nM	100 nM	1000 nM	10000 nM	100000 nM
IMC-1 (IL-2 20 ng/mL) [24]	0.88	-0.16	84.2	100	100
[21]	2.08	1.39	16.1	62.8	99.8
[23]	-10.5	-3.22	-1.72	25.3	92.7
[25]	-4.27	1.37	-2.08	24	96.7

Conditions	drug sensitivity score
IMC-1 (IL-2 20 ng/mL) [27]	27.8
[22]	14.1
[26]	8.93
[28]	9.04

c1cc(CN2CCCNCCNCCCNCC2)ccc1CN1CCCNCCNCCCNCC1 [Plerixafor] (max concentration tested 10000 nM)
percent inhibition of viability [%]
Conditions	1 nM	10 nM	100 nM	1000 nM	10000 nM
IMC-1 (IL-2 20 ng/mL) [24]	-6.62	-2.25	-2.63	-6.11	12
[21]	-8.84	-11.8	-6.04	-7.74	-11.7
[23]	-13.2	-6.73	-6.7	-15	-10.7
[25]	-11.8	-3.1	-2.77	-16.3	-17.5

Conditions	drug sensitivity score
IMC-1 (IL-2 20 ng/mL) [27]	0.01
[22]	0
[26]	0
[28]	0

CCN(c1cc(-c2ccc(CN3CCOCC3)cc2)cc(C(=O)NCc2c(C)cc(C)[nH]c2=O)c1C)C1CCOCC1 [E7438] (max concentration tested 10000 nM)
percent inhibition of viability [%]
Conditions	DERL-7 (IL-2 2.5 ng/mL) [4]	KAI3 (IL-2 2.5 ng/mL) [8]	KHYG-1 (IL-2 2.5 ng/mL) [1]	NK-92 (IL-2 2.5 ng/mL) [3]	NK-YS (IL-2 2.5 ng/mL) [10]	NKL (IL-2 2.5 ng/mL) [2]	SNK-6 (IL-2 2.5 ng/mL) [7]	YT (IL-2 2.5 ng/mL) [6]	[5]	[9]
1 nM	7.34	-4.36	-5.22	-6.98	-4.53	-13.6	1.4	-6.25	3.3	6.57
10 nM	4.06	3.43	-1.93	-6.59	-0.35	-3.23	5.22	-2.68	-9.28	-0.47
100 nM	9.96	0.88	0.98	11.7	5.89	3.68	2.14	0.66	3.33	9.19
1000 nM	1.71	-7.37	0.03	12.3	2.91	3.36	2.9	-5.62	-10.7	-13.6
10000 nM	11.7	-7.23	4.04	18	11.4	-3.21	-16.1	0.29	-1.96	3.73

Conditions	drug sensitivity score
DERL-7 (IL-2 2.5 ng/mL) [14]	0
KAI3 (IL-2 2.5 ng/mL) [18]	0
KHYG-1 (IL-2 2.5 ng/mL) [11]	0
NK-92 (IL-2 2.5 ng/mL) [13]	3.24
NK-YS (IL-2 2.5 ng/mL) [20]	0
NKL (IL-2 2.5 ng/mL) [12]	0
SNK-6 (IL-2 2.5 ng/mL) [17]	0
YT (IL-2 2.5 ng/mL) [16]	0
[15]	0
[19]	0

CCCCCCCCCCCCCCCCCCOP(=O)([O-])OC1CC[N+](C)(C)CC1 [Perifosine] (max concentration tested 2500 nM)
percent inhibition of viability [%]
Conditions	0.25 nM	2.5 nM	25 nM	250 nM	2500 nM
IMC-1 (IL-2 20 ng/mL) [24]	-3.43	-7.43	0.31	2.67	10.9
[21]	-10.4	-4.12	-6.08	9.36	14
[23]	-4.58	-3.48	-0.26	4.53	7.26
[25]	-6.26	-5.2	0.44	3.24	9.26

Conditions	drug sensitivity score
IMC-1 (IL-2 20 ng/mL) [27]	0.06
[22]	0.73
[26]	0
[28]	0
